Experimental data taken from patent US12319708B2, “Agonists of peroxisome proliferator-activated receptor alpha (PPARα) and methods of use” (The Board of Regents of the University of Oklahoma, priority 2018, dated 2025).
≈ marks a conversion by molar mass, not a printed value. Where two headings read alike, the source gives them in different places.

Columns and labels:
hPPARδ = molecular target: T1, hPPARδ (Homo sapiens, UniProt Q03181); assay: PPARδ luciferase reporter cell-line assay (Indigo Biosciences); assay type: cell-based
T1 construct: expressed in transfected cells
T1 sequence (Q03181 1-441): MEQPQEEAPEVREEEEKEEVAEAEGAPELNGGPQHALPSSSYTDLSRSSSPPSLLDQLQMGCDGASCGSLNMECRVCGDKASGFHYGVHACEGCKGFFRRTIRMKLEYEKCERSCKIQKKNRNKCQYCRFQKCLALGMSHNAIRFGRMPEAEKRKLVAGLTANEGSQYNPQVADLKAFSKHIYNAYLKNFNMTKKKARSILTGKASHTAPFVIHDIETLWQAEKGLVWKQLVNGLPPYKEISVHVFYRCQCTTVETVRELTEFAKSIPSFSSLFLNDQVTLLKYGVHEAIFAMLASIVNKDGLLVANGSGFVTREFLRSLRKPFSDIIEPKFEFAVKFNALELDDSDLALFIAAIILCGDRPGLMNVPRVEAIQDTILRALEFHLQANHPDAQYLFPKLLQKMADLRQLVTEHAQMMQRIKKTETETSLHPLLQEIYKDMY
Experimental: (§1) Luciferase assays were conducted on isogenic cell-lines engineered to overexpress either PPARδ or PPARγ with expression of the requisite luciferase reporter gene dependent upon exogenous activation of each isoform.

[1] = system: PPARα target genes (Acadm, Cpt1a, Fabp3, Slc25a20) in 661W cells; assay: RT-PCR of PPARα target genes in 661W cells; assay type: cell-based, mouse; conditions: 24 h
Experimental: (§2) To further confirm that this 4-benzyloxy-benzylamino chemotype acts as a PPARα agonist, we evaluated compound 10 in various biochemical assays. […] Compound 10 was also evaluated in an in vitro wound healing assay utilizing human retinal capillary endothelial cells (HRCEC).

[2] = system: retinal vascular leakage in diabetic rats; assay: STZ-rat model of diabetic retinopathy, retinal permeability; assay type: in vivo
Experimental: 7-8 week-old male Brown Norway rats were injected with streptozotocin (STZ, 55 mg/kg).

[3] = system: liver phenotype of STZ diabetic rats; assay: STZ-rat model, liver phenotype and toxicity; assay type: in vivo
Experimental: 7-8 week-old male Brown Norway rats were injected with streptozotocin (STZ, 55 mg/kg). Two weeks after STZ injections, daily treatment (i.p. injection) with ASD091 or FenoFA commenced and lasted for 26-28 days. ≠P<0.05 (vs. FenoFA), *P<0.05 (vs. STZ-DMSO).

hPPARγ = molecular target: T2, hPPARγ (Homo sapiens, UniProt P37231); assay: PPARγ luciferase reporter cell-line assay (Indigo Biosciences); assay type: cell-based
T2 construct: expressed in transfected cells
T2 sequence (P37231 1-505): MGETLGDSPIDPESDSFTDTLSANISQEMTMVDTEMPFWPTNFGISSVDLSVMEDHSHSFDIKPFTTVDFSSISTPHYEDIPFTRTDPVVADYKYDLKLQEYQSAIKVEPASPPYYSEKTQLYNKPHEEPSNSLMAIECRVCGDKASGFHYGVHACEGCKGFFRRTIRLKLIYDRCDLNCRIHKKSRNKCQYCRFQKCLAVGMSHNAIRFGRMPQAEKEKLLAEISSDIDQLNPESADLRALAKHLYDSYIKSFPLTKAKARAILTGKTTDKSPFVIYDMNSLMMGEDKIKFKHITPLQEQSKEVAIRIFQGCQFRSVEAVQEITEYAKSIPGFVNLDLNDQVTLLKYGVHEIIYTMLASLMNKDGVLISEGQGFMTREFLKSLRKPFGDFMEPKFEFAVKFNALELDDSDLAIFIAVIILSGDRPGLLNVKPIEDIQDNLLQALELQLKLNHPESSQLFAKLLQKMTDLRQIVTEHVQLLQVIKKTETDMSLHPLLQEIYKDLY
Experimental: as §1

[4] = system: PPARα expression in 661W cells; assay: Western blot analysis of PPARα expression in 661W cells; assay type: cell-based, mouse; conditions: 24 h, 10, 50 and 100 μM
Experimental: as §2

hPPARα = molecular target: T3, hPPARα (Homo sapiens, UniProt Q07869); assay: PPARα luciferase cell reporter assay (Indigo Biosciences); assay type: cell-based; conditions: for Fold (5 μM): fold increase in luciferase compared to DMSO negative control / Fold (50 μM): fold increase in luciferase compared to DMSO negative control: structure IIa compounds (Table 6); for ratio of agonism compared to GW590735 (value in parentheses): hPPARα luciferase reporter cell-line; for PPAR isoform selectivity profile: hPPARα vs hPPARδ and hPPARγ luciferase cell-lines; for dose-dependent PPARα agonism in cell-based luciferase reporter assay: FIGS. 4 and 7
T3 sequence (Q07869 1-468): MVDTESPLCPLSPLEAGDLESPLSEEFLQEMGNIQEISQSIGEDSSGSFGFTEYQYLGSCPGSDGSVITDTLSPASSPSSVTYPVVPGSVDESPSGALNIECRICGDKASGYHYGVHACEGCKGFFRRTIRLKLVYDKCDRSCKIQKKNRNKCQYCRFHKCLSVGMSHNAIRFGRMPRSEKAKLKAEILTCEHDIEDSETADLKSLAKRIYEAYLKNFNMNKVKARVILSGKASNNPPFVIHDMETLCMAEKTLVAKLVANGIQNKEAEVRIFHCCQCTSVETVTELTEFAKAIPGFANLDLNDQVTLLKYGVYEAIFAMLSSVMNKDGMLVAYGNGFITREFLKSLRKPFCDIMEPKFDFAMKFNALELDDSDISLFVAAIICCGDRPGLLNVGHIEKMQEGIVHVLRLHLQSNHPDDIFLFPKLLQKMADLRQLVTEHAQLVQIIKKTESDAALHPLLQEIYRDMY
Excerpt: With the focused subset of analogs in-hand, our efforts shifted to the evaluation of these derivatives for PPARα agonism. Preliminary evaluation utilized a commercially available PPARα luciferase cell reporter assay (Indigo Biosciences). The cell-line employed is engineered to constitutively express high-levels of hPPARα. Upon interaction with an agonist, hPPARα translocates to the nucleus, binds to the PPRE, and upregulates gene transcription, including the inserted luciferase gene. Luciferase activity is detected indirectly through quantification of oxyluciferin production.

[5] = Solubilities of various compounds; assay type: physicochemical
[6] = Table 6, cellular luciferase activity, read-out: δ EC50
[7] = luciferase reporter cell-line, triplicate, single experiment, read-out: hPPARδ EC50
[8] = STZ diabetic Brown Norway rats, daily i.p. injection 26-28 days
[9] = inferred from efficacy after systemic administration
[10] = Table 6, cellular luciferase activity, read-out: γ EC50
[11] = luciferase reporter cell-line, triplicate, single experiment, read-out: hPPARγ EC50
[12] = Table 6, cellular luciferase activity, read-out: α EC50
[13] = luciferase reporter cell-line, triplicate, single experiment, read-out: hPPARα EC50
[14] = PBS, pH 7.4, aqueous buffer, read-out: PBS Solubility pH 7.4
[15] = water, H2O, read-out: H2O Solubility

EC50 (hPPARδ; [6]) [µM]	EC50 (hPPARδ; [7]) [µM]	EC50 (hPPARγ; [10]) [µM]	EC50 (hPPARγ; [11]) [µM]	Fold (5 μM): fold increase in luciferase compared to DMSO negative control (hPPARα) [fold]	Fold (50 μM): fold increase in luciferase compared to DMSO negative control (hPPARα) [fold]	Compound	also measured
> 100	> 100	> 100	> 100	8	21	COc1ccc(COc2ccc(CNc3cccc(C(=O)O)c3)c(OCc3ccc(OC)cc3)c2)cc1 [Compound 92]	EC50 (hPPARα; [12]): 5.1 µM; ratio of agonism compared to GW590735 (value in parentheses) (hPPARα): 1.1; PPAR isoform selectivity profile (hPPARα): maintains the selectivity; EC50 (hPPARα; [13]): 5.1 µM
18.3	38.6	38.6	18.3	–	–	COc1ccc(COc2ccc(CNc3cccc(OC(C)(C)C(=O)O)c3)cc2)cc1 [Compound 114]	–
5.6	8.9	8.9	5.6	1	41	COc1ccc(COc2ccc(CNc3cccc(OC(C)(C)C(=O)O)c3)c(OCc3ccc(OC)cc3)c2)cc1 [Compound 115]	improvement in potency on adding third B-ring substituent (hPPARα; 28 compared with 22): 10 fold; EC50 (hPPARα; [12]): 2.1 µM; ratio of agonism compared to GW590735 (value in parentheses) (hPPARα): 1.4; PPAR isoform selectivity profile (hPPARα): pan-agonist profile was maintained; EC50 (hPPARα; [13]): 2.1 µM
> 100	–	> 100	–	–	–	Cc1cc(CNc2cccc(C(=O)O)c2)ccc1OCc1ccc(F)cc1 [Compound 190]	dose-dependent PPARα agonism in cell-based luciferase reporter assay (hPPARα): exhibits dose-dependent activity; dose-dependent PPARα agonism in cell-based luciferase reporter assay (hPPARα; listed as A190): dose-dependent agonism of PPARα; EC50 (hPPARα; [12]): 0.03 µM; EC50 (hPPARα; text b235, read-out: EC50 (PPARα)): 0.037 µM
–	–	–	–	34	45	O=C(O)c1cccc(NCc2ccc(OCc3ccccc3F)cc2)c1 [Compound 195]	–
–	–	–	–	88	84	Cc1cc(CNc2cccc(C(=O)O)c2)ccc1OCc1cc(F)cc(F)c1 [Compound 198]	–
–	–	–	–	102	131	Cc1cc(CN(C)c2cccc(C(=O)O)c2)ccc1OCc1ccc(F)cc1 [Compound 199]	–
–	–	–	–	–	–	CC(C)(Oc1ccc(C(=O)c2ccc(Cl)cc2)cc1)C(=O)O [Fenofibric acid, fenofibric acid, reference compound]	solubility [5, 14]: 278 µM (≈ 88.6 µg/mL); solubility [5, 15]: 93 µM (≈ 29.6 µg/mL)
–	–	–	–	–	–	Cc1cc(CNc2cccc(C(=O)OCOP(=O)([O-])O)c2)ccc1OCc1ccc(F)cc1.[Na+] [ZH-2021-162]	solubility [5, 14]: 292 µM; solubility [5, 15]: 318 µM
–	–	–	–	–	–	Cc1cc(CNc2cccc(C(=O)OCOP(=O)(O)O)c2)ccc1OCc1ccc(F)cc1 [ZH-2021-164]	solubility [5, 14]: 316 µM (≈ 150 µg/mL); solubility [5, 15]: 284 µM (≈ 135 µg/mL)

Compound	EC50 (hPPARδ; [6]) [µM]	EC50 (hPPARδ; [7]) [µM]	EC50 (hPPARγ; [10]) [µM]	EC50 (hPPARγ; [11]) [µM]	Fold (5 μM): fold increase in luciferase compared to DMSO negative control (hPPARα) [fold]	Fold (50 μM): fold increase in luciferase compared to DMSO negative control (hPPARα) [fold]	also measured
COc1ccc(COc2ccc(CNc3cccc(C(=O)O)c3)cc2)cc1 [Compound 91]	> 100	> 100	> 100	> 100	–	–	expression of PPARα target genes (Acadm, Cpt1a, Fabp3, Slc25a20) [1]: induces the expression of various PPARα target genes; retinal vascular leakage [2, 8]: reduces retinal vascular leakage in diabetic rats; bioavailability [2, 9]: is bioavailable; blood-ocular barrier crossing [2, 9]: crosses blood-ocular barrier and reaches the retina; signs of hepatomegaly [3, 8]: seems to lack signs of hepatomegaly; observable toxicity ([3]; daily injection for one-month): no observable toxicity; expression of PPARα (Western blot, densitometry) [4]: induced the expression of PPARα in a dose-dependent manner
